What was measured:
Type in all cases: biochemical
[1] = target: T1, lysosomal (acidic) α-D-mannosidase (Homo sapiens, UniProt O00754); test: Inhibition of lysosomal (acidic) α-D-mannosidase, fluorigenic 4-methylumbelliferyl glycoside substrate; conditions: for inhibition at 1000 µM: 1 mM inhibitor, 0.5 mM substrate, pH 4.0, mean of 2-4 determinations
T1 construct: Post mortem human liver, which had been stored at -20° C; from tissue; host or cells: post mortem human liver, 37,000 g supernatant; concanavalin A-Sepharose fraction
T1 sequence (O00754 50-1011): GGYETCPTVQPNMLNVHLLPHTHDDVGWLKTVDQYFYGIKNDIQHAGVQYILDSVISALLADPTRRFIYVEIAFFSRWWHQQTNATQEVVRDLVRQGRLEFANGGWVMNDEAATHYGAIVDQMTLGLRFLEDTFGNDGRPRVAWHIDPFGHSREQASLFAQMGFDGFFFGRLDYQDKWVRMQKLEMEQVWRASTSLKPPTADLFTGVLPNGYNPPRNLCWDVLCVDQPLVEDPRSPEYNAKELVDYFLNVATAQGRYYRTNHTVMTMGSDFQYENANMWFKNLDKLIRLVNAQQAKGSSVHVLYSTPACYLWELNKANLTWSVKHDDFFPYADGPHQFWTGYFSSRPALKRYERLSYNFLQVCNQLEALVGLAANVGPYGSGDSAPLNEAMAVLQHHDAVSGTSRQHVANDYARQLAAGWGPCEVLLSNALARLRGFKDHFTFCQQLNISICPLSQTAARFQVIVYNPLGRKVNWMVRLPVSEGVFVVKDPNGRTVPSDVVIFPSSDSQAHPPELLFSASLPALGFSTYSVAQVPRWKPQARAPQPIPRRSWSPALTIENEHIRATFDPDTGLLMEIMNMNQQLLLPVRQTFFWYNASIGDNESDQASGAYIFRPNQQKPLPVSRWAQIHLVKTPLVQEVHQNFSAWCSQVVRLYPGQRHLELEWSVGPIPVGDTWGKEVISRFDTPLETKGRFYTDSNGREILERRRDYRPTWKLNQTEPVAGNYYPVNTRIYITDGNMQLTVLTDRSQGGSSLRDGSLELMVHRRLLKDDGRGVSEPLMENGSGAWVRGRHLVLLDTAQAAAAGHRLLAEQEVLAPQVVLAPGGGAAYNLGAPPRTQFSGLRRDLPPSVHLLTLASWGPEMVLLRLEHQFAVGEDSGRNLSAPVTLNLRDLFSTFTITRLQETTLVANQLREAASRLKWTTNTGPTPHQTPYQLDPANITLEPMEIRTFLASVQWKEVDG
Method: (§1) Post mortem human liver, which had been stored at -20° C. until required was homogenized in deionized water (50%, w/v) in a Potter-Elvehjem homogenizer and then centrifuged at 37,000 g for 30 min in an MSE 18 centrifuge. The resultant supernatant was used as the source of enzymic activities.
(§2) The glycosidase activities in an extract of normal human liver were assayed by using the appropriate fluorigenic 4-methylumbelliferyl glycoside substrate (Koch-Light, Haverhill, Suffolk, U.K.) with a concentration of 0.5 mM at the optimal pH of each enzyme [Burditt et al., Clin. Chim. Acta 140, 201-209 (1980)]. Human liver acidic (lysomal) and neutral (cystosolic) α-D-mannosidases were assayed similarly at their pH-optima, of 4.0 and 6.5, respectively, after separation by affinity chromatography on concanavalin A-Sepharose® (Pharmacia Ltd, Milton Keynes, Bucks, U.K.) [Phillips et al., Biochem. J. 153, 579-587 (1976)]. The residual intermediate (Golgi) α-mannosidase II activity in extracts of fibroblasts from a patient with the lysosomal storage disease, mannosidosis, was assayed at pH 5.75 using the synthetic substrate (Burditt et al, Ibid.). The specificity of the inhibitors was determined by assaying the glycosidases in the presence and absence of a 1 mM solution of each compound. The nature of the inhibition and the value of Ki were determined using the Dixon graphical procedure.
(§3) Enzymic activities were measured in the presence and absence of 1 mM inhibitor. Inhibition (%) was calculated as the fraction of activity lost in the presence of inhibitor. The values are means of two to four independent determinations.

[2] = test system: N-acetyl hexosaminidase; test: Inhibition of N-acetyl hexosaminidase in human liver extract; conditions: 1 mM inhibitor; 0.5 mM substrate; optimal pH; mean of 2-4 determinations
Method: as §1, §2, §3

[3] = target: T2, α-L-fucosidase (Homo sapiens, UniProt P04066); test: Inhibition of α-L-fucosidase in human liver extract; conditions: for inhibition at 1000 µM: 1 mM inhibitor, 0.5 mM substrate, optimal pH, mean of 2-4 determinations
T2 construct: The glycosidase activities in an extract of normal human liver were assayed; from tissue; host or cells: post mortem human liver, 37,000 g supernatant
T2 sequence (P04066 32-466): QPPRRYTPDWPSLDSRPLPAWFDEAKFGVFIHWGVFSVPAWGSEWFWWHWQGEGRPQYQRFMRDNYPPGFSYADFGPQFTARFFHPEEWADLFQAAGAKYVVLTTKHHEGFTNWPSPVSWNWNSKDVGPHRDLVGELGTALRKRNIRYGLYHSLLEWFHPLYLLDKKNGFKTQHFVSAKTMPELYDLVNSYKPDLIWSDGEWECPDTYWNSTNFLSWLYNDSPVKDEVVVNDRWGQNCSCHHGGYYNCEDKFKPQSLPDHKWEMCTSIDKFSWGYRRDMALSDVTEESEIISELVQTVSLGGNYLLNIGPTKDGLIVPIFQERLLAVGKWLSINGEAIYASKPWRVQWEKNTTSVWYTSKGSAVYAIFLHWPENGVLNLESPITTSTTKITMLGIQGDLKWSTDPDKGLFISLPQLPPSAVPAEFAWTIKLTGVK
Method: The fraction of activity lost in the presence of the inhibitor was calculated for each pH; =α-L-fucosidase activity; o=inhibition (%).
as §1, §2, §3

Structure (SMILES) | inhibition of lysosomal α-D-mannosidase (in words) [1] | inhibition at 1000 µM [1] [%] | Ki ([1]; pH optimum of 4.0, Dixon graphical procedure) [µM] | Inhibition (%) [2] [%] | inhibition at 1000 µM [3] [%] | nature of the inhibition ([3]; Dixon graphical procedure) | pH-dependence of inhibition ([3]; FIG. 1) | Ki ([3]; pH 5.5, Dixon graphical procedure) [µM]
OC[C@H](O)[C@@H]1NC[C@@H](O)[C@H]1O [DIA, 1,4-dideoxy-1,4-imino-L-allitol] | good inhibitor | 84 | 170 | 42 | 60 | – | – | –
OC[C@H](O)[C@H]1[C@H](O)[C@H](O)CN1Cc1ccccc1 [N-benzyl DIA, N-benzyl-1,4-dideoxy-1,4-imino-L-allitol] | – | 3 | – | 15 | 74 | competitive | pH-dependent | 50
CN1C[C@@H](O)[C@@H](O)[C@@H]1[C@@H](O)CO [N-methyl DIA, N-methyl-1,4-dideoxy-1,4-imino-L-allitol] | – | 13 | – | 37 | 28 | – | – | –
